From patent US20230167073A1 (Teijin Pharma Limited, priority 2020, published 2023)

These compounds were tested against T1, Human TRPC6 (Homo sapiens, UniProt Q9Y210) (assay: Evaluation of TRPC6 channel inhibitory activity (2), HEK293 cells with stably introduced human TRPC6, OAG stimulation, FLIPR tetra (Compound Nos. 1293 to 1405)). Settings: HEK293 cells with stably introduced human TRPC6, OAG 50 μM/0.5% DMSO, read-out: Inhibitory activity (pIC50 class) (converted).
T1 construct: expressed in transfected cells
T1 sequence (Q9Y210 1-931): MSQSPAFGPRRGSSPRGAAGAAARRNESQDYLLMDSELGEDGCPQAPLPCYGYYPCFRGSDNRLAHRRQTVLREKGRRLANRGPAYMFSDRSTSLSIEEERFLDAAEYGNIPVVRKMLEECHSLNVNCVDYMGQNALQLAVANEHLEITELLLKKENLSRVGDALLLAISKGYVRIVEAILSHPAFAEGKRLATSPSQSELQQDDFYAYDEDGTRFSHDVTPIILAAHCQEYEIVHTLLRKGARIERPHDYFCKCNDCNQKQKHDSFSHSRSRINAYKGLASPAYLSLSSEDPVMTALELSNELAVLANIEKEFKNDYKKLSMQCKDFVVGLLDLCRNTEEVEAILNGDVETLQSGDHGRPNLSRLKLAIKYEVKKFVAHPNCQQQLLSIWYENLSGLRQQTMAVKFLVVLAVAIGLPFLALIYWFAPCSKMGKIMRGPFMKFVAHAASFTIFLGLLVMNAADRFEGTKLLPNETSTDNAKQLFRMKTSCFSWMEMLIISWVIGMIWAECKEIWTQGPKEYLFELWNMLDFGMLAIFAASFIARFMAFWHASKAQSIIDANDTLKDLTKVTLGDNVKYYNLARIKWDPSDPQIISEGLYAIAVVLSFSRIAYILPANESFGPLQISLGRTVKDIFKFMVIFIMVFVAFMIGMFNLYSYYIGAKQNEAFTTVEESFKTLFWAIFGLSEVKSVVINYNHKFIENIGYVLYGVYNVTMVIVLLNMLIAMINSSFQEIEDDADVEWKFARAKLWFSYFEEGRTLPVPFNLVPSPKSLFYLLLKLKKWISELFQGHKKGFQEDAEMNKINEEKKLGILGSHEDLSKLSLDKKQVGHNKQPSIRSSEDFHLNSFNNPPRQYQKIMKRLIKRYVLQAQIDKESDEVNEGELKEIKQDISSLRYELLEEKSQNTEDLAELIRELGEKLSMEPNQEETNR
Type: cell-based
In short: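 Calcium-dye-loaded HEK293 cells stably expressing human TRPC6 were pretreated with compound for 25 min, then stimulated with 50 μM OAG (0.5% DMSO) in Ca ringer buffer pH 7.2 with 2 mM CaCl2. Background-subtracted FLIPR calcium peaks were normalized to OAG (100%) and buffer (0%); pIC50 came from four-parameter logistic fit, binned as +/++/+++.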

IC50	SMILES
10 to 1000 nM	Cc1cc(Oc2cc(Cl)cnc2-c2ncc(CCN)cn2)cc(N2CCOCC2)n1 [compound 1385, 2-[2-[5-chloro-3-(2-methyl-6-morpholin-4-ylpyridin-4-yl)oxypyridin-2-yl]pyrimidin-5-yl]ethanamine]
10 to 1000 nM	Cn1nc(C2CCOCC2)cc1Oc1cc(Cl)ccc1-c1ccc([C@H](F)CN)cn1 [compound 1386, (2S)-2-[6-[4-chloro-2-[2-methyl-5-(oxan-4-yl)pyrazol-3-yl]oxyphenyl]pyridin-3-yl]-2-fluoroethanamine]
< 10 nM	Cn1nc(C2CCOCC2)cc1Oc1cc(Cl)ccc1-c1ccc([C@@H](F)CN)cn1 [compound 1387, (2R)-2-[6-[4-chloro-2-[2-methyl-5-(oxan-4-yl)pyrazol-3-yl]oxyphenyl]pyridin-3-yl]-2-fluoroethanamine]
10 to 1000 nM	Cn1nc(C2CCOCC2)cc1Oc1cc(Cl)ccc1-c1ncc([C@H](O)CN)cn1 [compound 1388, (1S)-2-amino-1-[2-[4-chloro-2-[2-methyl-5-(oxan-4-yl)pyrazol-3-yl]oxyphenyl]pyrimidin-5-yl]ethanol]
10 to 1000 nM	Cn1nc(C2CCOCC2)cc1Oc1cc(Cl)ccc1-c1ncc([C@@H](O)CN)cn1 [compound 1389, (1R)-2-amino-1-[2-[4-chloro-2-[2-methyl-5-(oxan-4-yl)pyrazol-3-yl]oxyphenyl]pyrimidin-5-yl]ethanol]
10 to 1000 nM	Cn1nc(C2CCOCC2)cc1Oc1cc(Cl)ccc1-c1ncc(CCN)cn1 [compound 1390, 2-[2-[4-chloro-2-[2-methyl-5-(oxan-4-yl)pyrazol-3-yl]oxyphenyl]pyrimidin-5-yl]ethanamine]
> 1000 nM	Cc1cc(Oc2cc(C#N)ccc2-c2ncc3c(n2)CNC3)cc(N2CCOCC2)n1 [compound 1392, 4-(6,7-dihydro-5H-pyrrolo[3,4-d]pyrimidin-2-yl)-3-(2-methyl-6-morpholin-4-ylpyridin-4-yl)oxybenzonitrile]
10 to 1000 nM	Cn1nc(-c2ccccn2)cc1Oc1cc(C#N)ccc1-c1ncc2c(n1)CNC2 [compound 1393, 4-(6,7-dihydro-5H-pyrrolo[3,4-d]pyrimidin-2-yl)-3-(2-methyl-5-pyridin-2-ylpyrazol-3-yl)oxybenzonitrile]
10 to 1000 nM	Cc1cc(Oc2cc(Cl)ccc2-c2ccc([C@@H](F)CN)cn2)cc(N2CCOCC2)n1 [compound 1394, (2R)-2-[6-[4-chloro-2-(2-methyl-6-morpholin-4-ylpyridin-4-yl)oxyphenyl]pyridin-3-yl]-2-fluoroethanamine]
< 10 nM	Cc1cc(Oc2cc(Cl)ccc2-c2ccc([C@@H](O)CN)cn2)cc(N2CCOCC2)n1 [compound 1395, (1R)-2-amino-1-[6-[4-chloro-2-(2-methyl-6-morpholin-4-ylpyridin-4-yl)oxyphenyl]pyridin-3-yl]ethanol]
10 to 1000 nM	Cc1cc(Oc2cc(Cl)ccc2-c2ccc([C@H](O)CN)cn2)cc(N2CCOCC2)n1 [compound 1396, (1S)-2-amino-1-[6-[4-chloro-2-(2-methyl-6-morpholin-4-ylpyridin-4-yl)oxyphenyl]pyridin-3-yl]ethanol]
10 to 1000 nM	Cc1cc(Oc2cc(Cl)cnc2-c2ccc([C@@H](F)CN)cn2)cc(N2CCOCC2)n1 [compound 1397, (2R)-2-[6-[5-chloro-3-(2-methyl-6-morpholin-4-ylpyridin-4 yl)oxypyridin-2-yl]pyridin-3-yl]-2-fluoroethanamine]
< 10 nM	Cc1cc(Oc2cc(Cl)cnc2-c2ccc([C@H](F)CN)cn2)cc(N2CCOCC2)n1 [compound 1398]

The next lines start with the compound.

SMILES	IC50
Cn1nc(C2CC2)cc1Oc1cc(C#N)ccc1-c1ncc([C@H](F)CN)cn1 [compound 1367, 4-[5-[(1S)-2-amino-1-fluoroethyl]pyrimidin-2-yl]-3-(5-cyclopropyl-2-methylpyrazol-3-yl)oxybenzonitrile]	< 10 nM
Cn1nc(C2CCOCC2)cc1Oc1cc(C#N)ccc1-c1ccc([C@@H](F)CN)cn1 [compound 1368, 4-[5-[(1R)-2-amino-1-fluoroethyl]pyridin-2-yl]-3-[2-methyl-5-(oxan-4-yl)pyrazol-3-yl]oxybenzonitrile]	< 10 nM
Cn1nc(C2CCOCC2)cc1Oc1cc(C#N)ccc1-c1ccc([C@H](F)CN)cn1 [compound 1369, 4-[5-[(1S)-2-amino-1-fluoroethyl]pyridin-2-yl]-3-[2-methyl-5-(oxan-4-yl)pyrazol-3-yl]oxybenzonitrile]	< 10 nM
Cn1nc(C2CC2)cc1Oc1cc(Cl)cnc1-c1ccc([C@@H](F)CN)cn1 [compound 1370, (2R)-2-[6-[5-chloro-3-(5-cyclopropyl-2-methylpyrazol-3-yl)oxypyridin-2-yl]pyridin-3-yl]-2-fluoroethanamine]	10 to 1000 nM
Cn1nc(C2CC2)cc1Oc1cc(Cl)cnc1-c1ccc([C@H](F)CN)cn1 [compound 1371, (2S)-2-[6-[5-chloro-3-(5-cyclopropyl-2-methylpyrazol-3-yl)oxypyridin-2-yl]pyridin-3-yl]-2-fluoroethanamine]	< 10 nM
Cn1nc(C2CCOCC2)cc1Oc1cc(Cl)cnc1-c1ccc([C@@H](F)CN)cn1 [compound 1372, (2R)-2-[6-[5-chloro-3-[2-methyl-5-(oxan-4-yl)pyrazol-3-yl]oxypyridin-2-yl]pyridin-3-yl]-2-fluoroethanamine]	> 1000 nM
Cn1nc(C2CCOCC2)cc1Oc1cc(Cl)cnc1-c1ccc([C@H](F)CN)cn1 [compound 1373, (2S)-2-[6-[5-chloro-3-[2-methyl-5-(oxan-4-yl)pyrazol-3-yl]oxypyridin-2-yl]pyridin-3-yl]-2-fluoroethanamine]	< 10 nM
Cc1nc(Oc2cc(Cl)ccc2-c2ncc([C@@H](F)CN)cn2)cc(N2CCOCC2)n1 [compound 1374, (2R)-2-[2-[4-chloro-2-(2-methyl-6-morpholin-4-ylpyrimidin-4-yl)oxyphenyl]pyrimidin-5-yl]-2-fluoroethanamine]	10 to 1000 nM
Cc1nc(Oc2cc(Cl)ccc2-c2ncc([C@H](F)CN)cn2)cc(N2CCOCC2)n1 [compound 1375, (2S)-2-[2-[4-chloro-2-(2-methyl-6-morpholin-4-ylpyrimidin-4-yl)oxyphenyl]pyrimidin-5-yl]-2-fluoroethanamine]	10 to 1000 nM
Cc1nc(Oc2cc(Cl)ccc2-c2ncc([C@@H](O)CN)cn2)cc(N2CCOCC2)n1 [compound 1376, (1R)-2-amino-1-[2-[4-chloro-2-(2-methyl-6-morpholin-4-ylpyrimidin-4-yl)oxyphenyl]pyrimidin-5-yl]ethanol]	10 to 1000 nM
Cc1nc(Oc2cc(Cl)ccc2-c2ncc([C@H](O)CN)cn2)cc(N2CCOCC2)n1 [compound 1377, (1S)-2-amino-1-[2-[4-chloro-2-(2-methyl-6-morpholin-4-ylpyrimidin-4-yl)oxyphenyl]pyrimidin-5-yl]ethanol]	10 to 1000 nM
Cc1nc(Oc2cc(Cl)ccc2-c2ncc(CCN)cn2)cc(N2CCOCC2)n1 [compound 1378, 2-[2-[4-chloro-2-(2-methyl-6-morpholin-4-ylpyrimidin-4-yl)oxyphenyl]pyrimidin-5-yl]ethanamine]	10 to 1000 nM
Cn1nc(-c2ccccn2)cc1Oc1cc(Cl)ccc1-c1ccc([C@H](N)C(F)(F)F)cn1 [compound 1379, (1S)-1-[6-[4-chloro-2-(2-methyl-5-pyridin-2-ylpyrazol-3-yl)oxyphenyl]pyridin-3-yl]-2,2,2-trifluoroethanamine]	> 1000 nM
C[C@@H](N)c1ccc(-c2ccc(Cl)cc2Oc2cc(-c3ccccn3)nn2C)nc1 [compound 1380, (1R)-1-[6-[4-chloro-2-(2-methyl-5-pyridin-2-ylpyrazol-3-yl)oxyphenyl]pyridin-3-yl]ethanamine]	< 10 nM
Cn1nc(C2CC2)cc1Oc1cc(F)ccc1-c1ncc([C@@H](F)CN)cn1 [compound 1382, (2R)-2-[2-[2-(5-cyclopropyl-2-methylpyrazol-3-yl)oxy-4-fluorophenyl]pyrimidin-5-yl]-2-fluoroethanamine]	10 to 1000 nM
Cn1nc(C2CC2)cc1Oc1cc(F)ccc1-c1ncc([C@H](O)CN)cn1 [compound 1383, (1S)-2-amino-1-[2-[2-(5-cyclopropyl-2-methylpyrazol-3-yl)oxy-4-fluorophenyl]pyrimidin-5-yl]ethanol]	10 to 1000 nM
Cn1nc(C2CC2)cc1Oc1cc(F)ccc1-c1ncc([C@@H](O)CN)cn1 [compound 1384, (1R)-2-amino-1-[2-[2-(5-cyclopropyl-2-methylpyrazol-3-yl)oxy-4-fluorophenyl]pyrimidin-5-yl]ethanol]	10 to 1000 nM
